In US20240124445A1, “BENZENE RING COMPOUND AND USE THEREOF” (NANJING SHIJIANG MEDICINE TECHNOLOGY CO., LTD, priority 2020, published 2024):
Read-outs that look alike come from different tables or passages of the source.

How the values were obtained:
[1] = tested on: MDA-MB-453; test: Cell viability (CellTiter-Glo) of MDA-MB-453; format: cell-based; conditions: Homo sapiens
Method: (§1) Cell viability was detected using the Promega CellTiter-Glo kit, the kit reflected cell viability by directly measuring intracellular ATP content. Different cancer cells was cultured in medium, the 50% inhibiting concentration (IC50) of compound AB24852 on cancer cells was determined using Promega CellTiter-Glo kit. The name, source and culture conditions of each tumor cell line were as follows:
Cell line MDA-MB-453 (ATCC, No. HTB-131) was cultured in 10% fetal bovine serum-containing Leibovitz's L-15 medium (+P/S).
(§2) Cell viability was detected using the Promega CellTiter-Glo kit, the kit reflected cell viability by directly measuring intracellular ATP content. In the experiment, the IC50 value of different compounds on different tumor cell lines was detected to determine cell lines that were sensitive or insensitive to different compounds.
(§3) Tumor cells were cultured in 10% FBS-containing medium (+p/s), and incubated for 3 h or the following day, then the gradient diluted compound was added. After 3 days of culture, the relevant IC50 (50% inhibiting concentration) was measured. The name, source and culture conditions of each tumor cell line were as follows: […]

[2] = tested on: 786-O; test: Cell viability (CellTiter-Glo) of 786-O; format: cell-based; conditions: Homo sapiens, 786-0, 72 h, 3 days of culture
Method: as §2
(§4) Tumor cells were cultured in 10% FBS-containing medium (+p/s), and incubated for 3 h or the following day, then the gradient diluted compound was added. After 3 days of culture, the relevant IC50 (50% inhibiting concentration) was measured. The name, source and culture conditions of each tumor cell line were as follows:
Cell line 786-0 (ATCC, No. CRL-1932) was cultured in 10% fetal bovine serum-containing RPMI1640 medium (+P/S).

[3] = tested on: SW48; test: Cell viability (CellTiter-Glo) of SW48; format: cell-based; conditions: Homo sapiens
Method: as §1
Cell line SW48 (ATCC, No. CCL-231) was cultured in 10% fetal bovine serum-containing Leibovitz's L-15 medium (+P/S).
as §2, §3

[4] = tested on: G-401; test: Cell viability (CellTiter-Glo) of G-401; format: cell-based; conditions: Homo sapiens
Method: as §1
Cell line G-401 (ATCC, No. CRL-1441) was cultured in 10% fetal bovine serum-containing McCoy's 5a medium (+P/S).
as §2, §3

[5] = Stability in human liver microsome; format: in vitro ADME; conditions: liver microsomes, pH 7.4, 1.5 μM drug solution, NADPH, 37° C., read-out: Human T1/2
Method: Vortexing for 10 min, the sample was centrifuged with 5594×g for 15 min in centrifuger (Thermo Multifuge×3R). • 10) taking 50 μL supernatant from the centrifuged sample, transferred to 96 well sample plate contain 50 μL water, mixed, and the sample was analyzed using LC-MS/MS.

[6] = tested on: CFPAC-1; test: Cell viability (CellTiter-Glo) of CFPAC-1; format: cell-based; conditions: Homo sapiens, 72 h; CFPAC-1, 3 days of culture
Method: as §2, §4
Cell line CFPAC-1 (ATCC, No. CRL-1918) was cultured in 10% fetal bovine serum-containing IMDM medium (+P/S).

[7] = tested on: SF-126; test: Cell viability (CellTiter-Glo) of SF-126; format: cell-based; conditions: Homo sapiens, 72 h; SF-126, 3 days of culture
Method: as §2, §3

[8] = tested on: GB-1; test: Cell viability (CellTiter-Glo) of GB-1; format: cell-based; conditions: Homo sapiens, 72 h; GB-1, 3 days of culture
Method: as §2, §4
Cell line GB-1 (JCRB, No. IF050489) was cultured in 10% fetal bovine serum-containing DMEM medium (+P/S).

[9] = tested on: NCI-H82 cell; test: Cell viability (Promega CellTiter-Glo) of NCI-H82 cell; format: cell-based; conditions: Homo sapiens
Method: Cell viability was detected using the Promega CellTiter-Glo kit, the kit reflected cell viability by directly measuring intracellular ATP content. Small cell lung cancer cell NCI-H82 (ATCC, No. HTB-175) was cultured in 10% fetal bovine serum-containing RPMI1640 medium (+P/S).
Cell viability was detected using the Promega CellTiter-Glo kit, the kit reflected cell viability by directly measuring intracellular ATP content.
Daoy cell was cultured in 10% fetal bovine serum-containing DMEM medium (+P/S), and NCI-H82 cell was cultured in 10% fetal bovine serum-containing RPMI1640 medium (+P/S).
as §2, §4
Cell line NCI-H82 (ATCC, No. HTB-175) was cultured in 10% fetal bovine serum-containing RPMI1640 medium (+P/S).

[10] = tested on: mitochondria permeability transition pore; test: Mitochondria membrane potential difference by TMRM in Daoy cell; format: cell-based, human; conditions: H2O2 +, CsA none
[11] = tested on: mitochondria permeability transition pore; test: Mitochondria membrane potential difference by TMRM in NCI-H82 cell; format: cell-based, human; conditions: H2O2 +, CsA none
[12] = tested on: OCI-AML-4; test: Cell viability (CellTiter-Glo) of OCI-AML-4; format: cell-based; conditions: OCI-AML-4, leukemia
Method: as §1
Cell line OCI-AML-4 (DSMZ, No. ACC-729) was cultured in alpha-MEM medium containing 20% fetal bovine serum and 20% volume fraction of 5637 cell line adjusted medium (+P/S).

[13] = tested on: MIA PaCa-2; test: Cell viability (CellTiter-Glo) of MIA PaCa-2; format: cell-based; conditions: Homo sapiens; MIA PaCa-2, pancreatic cancer
Method: as §1
Cell line MIA PaCa-2 (ATCC, No. CRL-1420) was cultured in 10% fetal bovine serum-containing DMEM medium (+P/S).

[14] = tested on: SU-DHL-2; test: Cell viability (CellTiter-Glo) of SU-DHL-2; format: cell-based; conditions: Homo sapiens; SU-DHL-2, lymphoma
Method: as §1
Cell line SU-DHL-2 (ATCC, No. CRL-2956) was cultured in 10% fetal bovine serum-containing RPMI1640 medium (+P/S).

[15] = tested on: 22RV1; test: Cell viability (CellTiter-Glo) of 22RV1; format: cell-based; conditions: Homo sapiens; 22RV1, prostatic cancer
Method: as §1
Cell line 22RV1 (ATCC, No. CRL-2505) was cultured in 10% fetal bovine serum-containing RPMI1640 medium (+P/S).

[16] = tested on: A-375; test: Cell viability (CellTiter-Glo) of A-375; format: cell-based; conditions: Homo sapiens; A-375, melanoma
Method: as §1
Cell line A-375 (ATCC, No. CRL-1619) was cultured in 10% fetal bovine serum-containing DMEM medium (+P/S).

[17] = tested on: SNU-398; test: Cell viability (CellTiter-Glo) of SNU-398; format: cell-based; conditions: Homo sapiens; SNU-398, liver cancer
Method: as §1
Cell line SNU-398 (ATCC, number CRL-2233) was cultured in 10% fetal bovine serum-containing RPMI1640 medium (+P/S).

[18] = tested on: NCI-H1048; test: Cell viability (CellTiter-Glo) of NCI-H1048; format: cell-based; conditions: Homo sapiens; NCI-H1048, lung cancer
Method: as §1
Cell line NCI-H1048 (ATCC, No. CRL-5853) was cultured in 5% fetal bovine serum-containing HITES medium (+P/S).

[19] = 72 h, MDA-MB-453, 3 days of culture, Table 5, read-out: IC50 MDA-MB-453
[20] = 72 h, SW48, 3 days of culture, Table 5, read-out: IC50 SW48
[21] = 72 h, G-401, 3 days of culture, Table 5, read-out: IC50 G-401
[22] = 72 h, NCI-H82, 3 days of culture, Table 5, read-out: IC50 NCI-H82
[23] = NCI-H82 cell, Table 1, read-out: IC50

| Compound | IC50 [1, 19] | IC50 [2] | IC50 [3, 20] | IC50 [4, 21] | half-life at 1 µM [5] | IC50 [6] | IC50 [7] | IC50 [8] | IC50 [9, 22] | IC50 [9, 23] | further results |
| --- | --- | --- | --- | --- | --- | --- | --- | --- | --- | --- | --- |
| O=C(C[n+]1ccc(NCc2ccccc2)cc1)c1ccc(OC(F)(F)F)cc1 [AB24810A] | 2690 nM | > 50000 nM | 2130 nM | 1950 nM | 65.2 h | 36000 nM | 13100 nM | 24500 nM | 1340 nM | 1340 nM | – |
| OO [Compound H2O2] | – | – | – | – | – | – | – | – | – | – | Relative TMRM signal intensity, mean value [10]: 82%; Relative TMRM signal intensity, mean value [11]: 119% |
| O=C(C[n+]1ccc(NCc2ccccc2)cc1)c1cccc([N+](=O)[O-])c1 [AB24852] | 220 nM | > 50000 nM | 720 nM | 1020 nM | 1.78 h | > 50000 nM | > 50000 nM | > 50000 nM | 1460 nM | 1460 nM | IC50 ([1]; MDA-MB-453, breast cancer, Table 2, read-out: IC50): 200 nM; IC50 ([3]; SW48, intestine cancer, Table 2, read-out: IC50): 700 nM; IC50 ([4]; G-401, renal carcinoma, Table 2, read-out: IC50): 1000 nM; IC50 [12]: 800 nM; IC50 [13]: 700 nM; IC50 [14]: 300 nM; IC50 [15]: 2300 nM; IC50 [16]: 1300 nM; IC50 [17]: 1700 nM; IC50 [18]: 1100 nM |
| O=C(C[n+]1ccc2[nH]cc(Cc3ccccc3)c2c1)c1ccc(Cl)cc1 [AB24833A] | 5300 nM | 45400 nM | 8160 nM | 5300 nM | – | 24800 nM | 21600 nM | 22000 nM | – | – | IC50 ([9]; NCI-H82): 3380 nM; IC50 ([9]; NCI-H82, 72 h, read-out: IC50 NCI-H82): 3380 nM |
| O=C(C[n+]1ccc(NCc2ccccc2)cc1)c1cccc(Cl)c1 [AB24805A] | 210 nM | 46500 nM | 760 nM | 420 nM | 3.71 h | 35700 nM | 3180 nM | 3430 nM | 370 nM | 370 nM | – |
| Cc1ccc(C(=O)C[n+]2ccc(NCc3ccccc3)cc2)cc1 [AB24845A] | 190 nM | 38600 nM | 140 nM | 300 nM | – | 29400 nM | 2280 nM | 4370 nM | 120 nM | 120 nM | – |
| O=C(C[n+]1ccc(NCc2ccccc2)cc1)c1ccc(Br)cc1 [AB24808A] | 360 nM | 44000 nM | 1780 nM | 910 nM | 5.69 h | 20000 nM | 2980 nM | 5270 nM | 610 nM | 610 nM | – |
| O=C(C[n+]1ccc(NCc2ccccc2)cc1)c1ccc(C(F)(F)F)cc1 [AB24809A] | 1770 nM | > 50000 nM | 7640 nM | 3030 nM | 6.64 h | > 50000 nM | 37500 nM | > 50000 nM | 2430 nM | 2430 nM | – |
| O=C1c2ccc(Cl)cc2CCC1[n+]1ccc(NCc2ccccc2)cc1 (stereo not drawn) [AB24841A] | 620 nM | > 50000 nM | 800 nM | 630 nM | 20.4 h | 35700 nM | 10800 nM | 16400 nM | 590 nM | 590 nM | – |
| Cc1ccc(C(=O)C[n+]2ccc(NCc3ccccc3)nc2)cc1 [AB24846] | 820 nM | 47300 nM | 2050 nM | 690 nM | – | 36400 nM | 3610 nM | 12300 nM | 510 nM | 510 nM | – |
